pIC50: −log10 of the molar value.
Legend:
JAK3 enzyme [1] = biological target: T1, JAK3 enzyme (Homo sapiens, UniProt P52333); experiment: JAK Caliper Enzyme Assay at 4 μM ATP; format: biochemical
T1 sequence (P52333 1-1124): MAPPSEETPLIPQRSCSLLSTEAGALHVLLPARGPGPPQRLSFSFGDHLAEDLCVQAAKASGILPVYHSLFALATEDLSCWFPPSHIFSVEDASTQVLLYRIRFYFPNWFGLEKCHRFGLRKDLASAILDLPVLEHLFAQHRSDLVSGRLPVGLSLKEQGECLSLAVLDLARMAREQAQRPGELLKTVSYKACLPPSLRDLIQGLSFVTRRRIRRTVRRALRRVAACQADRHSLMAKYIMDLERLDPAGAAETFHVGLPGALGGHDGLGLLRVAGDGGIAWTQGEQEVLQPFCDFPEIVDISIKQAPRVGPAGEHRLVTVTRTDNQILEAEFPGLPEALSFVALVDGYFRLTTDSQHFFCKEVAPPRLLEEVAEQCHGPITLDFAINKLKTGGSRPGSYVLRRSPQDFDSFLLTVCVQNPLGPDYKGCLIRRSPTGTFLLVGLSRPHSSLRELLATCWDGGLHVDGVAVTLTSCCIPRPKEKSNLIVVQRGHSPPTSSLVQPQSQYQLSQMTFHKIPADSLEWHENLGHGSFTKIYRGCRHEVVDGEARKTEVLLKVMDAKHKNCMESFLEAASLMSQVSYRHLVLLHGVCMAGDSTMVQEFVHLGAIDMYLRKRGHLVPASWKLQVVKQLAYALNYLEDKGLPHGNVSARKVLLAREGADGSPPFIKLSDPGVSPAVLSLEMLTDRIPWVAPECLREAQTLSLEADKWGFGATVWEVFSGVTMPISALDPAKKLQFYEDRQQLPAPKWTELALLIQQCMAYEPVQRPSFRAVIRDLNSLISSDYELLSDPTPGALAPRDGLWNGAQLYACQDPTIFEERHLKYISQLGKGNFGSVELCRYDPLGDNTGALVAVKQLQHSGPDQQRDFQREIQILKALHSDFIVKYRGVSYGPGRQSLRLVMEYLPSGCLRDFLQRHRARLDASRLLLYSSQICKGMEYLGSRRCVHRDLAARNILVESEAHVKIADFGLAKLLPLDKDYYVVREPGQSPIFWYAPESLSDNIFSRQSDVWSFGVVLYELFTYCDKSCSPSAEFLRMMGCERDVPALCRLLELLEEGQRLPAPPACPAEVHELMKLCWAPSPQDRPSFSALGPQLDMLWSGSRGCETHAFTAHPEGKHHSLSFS
Method in brief: (§1)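 Compound tested as 11-point half-log DMSO dilution series (top 600 μM in DMSO, a dilution-plate level). Enzyme level and time set for 20%-30% peptide phosphorylation; phosphorylated and unphosphorylated peptide separated and quantified by Caliper LC3000 mobility shift.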

JAK3 enzyme [2] = biological target: T1, JAK3 enzyme; experiment: JAK Caliper Enzyme Assay at 1 mM ATP; format: biochemical
Method in brief: as §1

[3] = system: IL-15 induced P-STAT5 in human PBMC; experiment: PBMC IL-15 Induced P-STAT5; format: cell-based; details: human PBMC, IL-15 final 41 ng/mL; read-out: PBMC IL15_pSTAT5_IC50
Method in brief: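 Thawed human PBMC, rested in human plasma, were preincubated 15 min at 37 °C with compound (0.2% DMSO), then stimulated 15 min with IL-15 at 41 ng/mL final. After paraformaldehyde fixation and methanol permeabilisation, Alexa Fluor 647 anti-STAT5 staining overnight at 4 °C was analysed by flow cytometry on total lymphocytes.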

| SMILES | pIC50 (JAK3 enzyme [1]) | pIC50 (JAK3 enzyme [2]) | pIC50 [3] |
| --- | --- | --- | --- |
| C=CC(=O)N1CC[C@@H](Nc2cnc3[nH]cc(C(=O)NCC4(O)CCC(F)(F)CC4)c3n2)[C@@H](OC)C1 [Example 268] | 8.84 | 6.48 | < 5.00 |
| C=CC(=O)N1CC[C@H](Nc2cnc3[nH]cc(C(=O)N[C@@H]4C[C@H]4C(F)(F)F)c3n2)[C@H](OC)C1 [Example 271, 2-{[(3R,4S)-1-acryloyl-3-methoxypiperidin-4-yl]amino}-N-[(1R,2R)-2-(trifluoromethyl)cyclopropyl]-5H-pyrrolo[2,3-b]pyrazine-7-carboxamide] | 9.17 | 6.84 | 5.94 |
| C=CC(=O)N1CCN(c2cnc3[nH]cc(C(=O)NC4CC(F)(F)C4)c3n2)C[C@@H]1CC(C)C [Example 273, 2-[(3S)-4-acryloyl-3-(2-methylpropyl)piperazin-1-yl]-N-(3,3-difluorocyclobutyl)-5H-pyrrolo[2,3-b]pyrazine-7-carboxamide] | 8.80 | 6.69 | 6.41 |
| C=CC(=O)N1CCN(c2cnc3[nH]cc(C(=O)NCC4CC(F)(F)C4)c3n2)C[C@@H]1CC(C)C [Example 274, 2-[(3S)-4-acryloyl-3-(2-methylpropyl)piperazin-1-yl]-N-[(3,3-difluorocyclobutyl)methyl]-5H-pyrrolo[2,3-b]pyrazine-7-carboxamide] | 9.01 | 6.80 | 6.30 |
| C=CC(=O)N1CCN(c2cnc3[nH]cc(C(=O)NCC4CC(F)(F)C4)c3n2)CC1 [Example 276, 2-(4-acryloylpiperazin-1-yl)-N-[(3,3-difluorocyclobutyl)methyl]-5H-pyrrolo[2,3-b]pyrazine-7-carboxamide] | 9.32 | 6.95 | 6.21 |
| C=CC(=O)N1CC[C@H](Nc2cnc3[nH]cc(C(=O)NC4CC(F)(F)C4)c3n2)[C@H](OC)C1 [Example 277, 2-{[(3R,4S)-1-acryloyl-3-methoxypiperidin-4-yl]amino}-N-(3,3-difluorocyclobutyl)-5H-pyrrolo[2,3-b]pyrazine-7-carboxamide] | 9.23 | 6.81 | 5.63 |
| C=CC(=O)N1CCC(C)(Nc2cnc3[nH]cc(C(=O)NCC)c3n2)CC1 [Example 281, 2-[(1-acryloyl-4-methylpiperidin-4-yl)amino]-N-ethyl-5H-pyrrolo[2,3-b]pyrazine-7-carboxamide] | 8.99 | 7.14 | 5.91 |

Second part, led by results:

| pIC50 (JAK3 enzyme [1]) | pIC50 (JAK3 enzyme [2]) | SMILES | pIC50 [3] |
| --- | --- | --- | --- |
| 8.33 | 6.13 | C=CC(=O)N1CCN(c2cnc3[nH]cc(C(=O)NCCOC)c3n2)CC1(C)C [Example 265, 2-(4-acryloyl-3,3-dimethylpiperazin-1-yl)-N-(2-methoxyethyl)-5H-pyrrolo[2,3-b]pyrazine-7-carboxamide] | 5.69 |
| 8.50 | 6.38 | C=CC(=O)N1CCN(c2cnc3[nH]cc(C(=O)NCC(C)(F)F)c3n2)CC1(C)C [Example 275, 2-(4-acryloyl-3,3-dimethylpiperazin-1-yl)-N-(2,2-difluoropropyl)-5H-pyrrolo[2,3-b]pyrazine-7-carboxamide] | 5.99 |
| 8.39 | 6.29 | C=CC(=O)N1CCN(c2cnc3[nH]cc(C(=O)NCC(C)(C)C)c3n2)CC1(C)C [Example 285, 2-(4-acryloyl-3,3-dimethylpiperazin-1-yl)-N-(2,2-dimethylpropyl)-5H-pyrrolo[2,3-b]pyrazine-7-carboxamide] | 5.75 |
| 8.89 | 6.68 | C=CC(=O)N1CCN(c2cnc3[nH]cc(C(=O)NC4CCC4)c3n2)CC1(C)C [Example 289, 2-(4-acryloyl-3,3-dimethylpiperazin-1-yl)-N-cyclobutyl-5H-pyrrolo[2,3-b]pyrazine-7-carboxamide] | 6.34 |
